The numbers were not newly measured in US20200229407A1 (priority 2017, published 2020), which cites them from elsewhere.

The subject of data set [1] is prion replication in neuroblastoma cells.
Another data set has as its system scrapie agent. The note with it: mouse, in vivo.

Consider `C=CC[C@@H]1/C=C(\C)C[C@H](C)C[C@H](OC)[C@H]2O[C@@](O)(C(=O)C(=O)N3CCCC[C@H]3C(=O)O[C@H](/C(C)=C/[C@@H]3CC[C@@H](O)[C@H](OC)C3)[C@H](C)[C@@H](O)CC1=O)[C@H](C)C[C@@H]2OC` [tacrolimus], for which, in data set [1], the prion replication entry is “inhibiting prion replication”. Moreover, in the data set on cell-surface PrP, the “cell-surface PrP” value is “reducing cell-surface PrP”. For the molecule `COc1ccc(CCN2CCC(Nc3nc4ccccc4n3Cc3ccc(F)cc3)CC2)cc1` [astemizole], the prion replication result in data set [1] was “inhibiting prion replication”. Moreover, the “cell-surface PrP” value in the data set on cell-surface PrP is given as “reducing cell-surface PrP”. For pentosan polysulphate [PPS], in the data set with scrapie agent, the incubation period entry is listed as “prolonged the incubation period”.
